Measured values reported in patent US8791299B2, “Compounds for the inhibition of herpes viruses” (Universite Laval, priority 2009, dated 2014).
Read-outs that look alike come from different tables or passages of the source.

Columns and labels:
VZV = experiment: Plaque reduction assay (PRA), VZV in HFFs; type: cell-based, varicella zoster virus; conditions: for antiviral activity by PRA: ACV-resistant VZV strains; for in vitro antiviral activity (concluding summary, words): VZV
Method: (§1) Top leading compounds were purchased from Sigma-Aldrich or ChemBridge for in vitro testing. On the day of the assay, compounds were prepared in DMSO at a concentration of 10 mM. Stock solutions were then diluted in Eagle's minimal essential medium (MEM) to the appropriate concentrations. ACV, GCV and FOS (prepared in MEM) were used as comparators for susceptible and resistant recombinant viruses and clinical isolates.
(§2) Antiviral activity of compounds 1 to 8 was first tested at two concentrations, i.e. 1 μM and 10 μM, along with currently-available first-line drugs (ACV for HSV/VZV and GCV for CMV). Then, 50% inhibitory concentration (IC50) values were determined for the top leading compounds in comparison with ACV, GCV and FOS using a standard plaque reduction assay (PRA). Briefly, Vero cells or HFFs seeded in 24-well plates were inoculated with 40 plaque forming units (PFUs) of recombinant viruses or clinical isolates. Infected cells were incubated with serial drug concentrations for appropriate periods of time. Cells were fixed and stained. The number of plaques was counted in each well and expressed in percentage of the PFUs in no-drug control wells. Recombinant and clinical viral strains were considered resistant to a drug if their IC50 values were at least 2.5 times greater than that of the representative wild-type strains.

HSV-2 = experiment: Plaque reduction assay (PRA), HSV-2 in Vero cells; type: cell-based, herpes simplex 2; conditions: for antiviral activity by PRA: wild-type HSV-2; for in vitro antiviral activity (concluding summary, words): HSV-2; for factor by which less active than ACV (IC50): representative wild-type HSV strains, PRA
Method: as §1, §2

HSV-1 = experiment: Plaque reduction assay (PRA), HSV-1 in Vero cells; type: cell-based, herpes simplex 1; conditions: for antiviral activity by PRA: wild-type HSV-1; for in vitro antiviral activity (concluding summary, words): HSV-1; for factor by which less active than ACV (IC50): representative wild-type HSV strains, PRA
Method: as §1, §2

CMV = experiment: Plaque reduction assay (PRA), CMV in HFFs; type: cell-based, cytomegalovirus; conditions: for antiviral activity by PRA: wild-type CMV isolate
Method: as §1, §2

[1] = Parallel Artificial Membrane Permeability Assay (PAMPA); type: in vitro ADME; conditions: for Papp at 5 h: 5 h incubation, n=4, read-out: apparent permeability coefficient (Papp)
Method: Passive membrane permeability was determined using Parallel Artificial Membrane Permeability Assay (PAMPA). Initial concentrations of compounds 2 and 3 used for this assay were 37 and 2.5 respectively. Membrane area was 0.3 cm^2. After a 5 h incubation, fractions were taken on both sides of the membrane and compound concentrations were determined by LC-MS/MS. The apparent permeability coefficient (Papp) was calculated using the equation Papp=(dQ/dtAc0), where dQ/dt is the appearance rate of compound in the acceptor compartment, A is the surface area of the transwell membrane, and co is the initial concentration in the donor compartment.

[2] = tested on: Human foreskin fibroblasts (HFFs); experiment: MTS cell proliferation (cytotoxicity) assay on HFFs; conditions: for toxicity (CC50) compared with ACV, GCV and FOS: HFFs, MTS assay
Method: (§3) Human foreskin fibroblasts (HFFs) and African green monkey kidney cells (Vero) were grown in MEM supplemented with 10% fetal bovine serum. Cells were maintained at 37° C. in a humidified 5% CO2 atmosphere. Vero cells and HFFs were used for propagation of viral strains and susceptibility assays for HSV-1/HSV-2 and VZV/CMV, respectively. Clinical strains H25 (HSV-1), HSV22 (HSV-2) as well as laboratory strains KOS(HSV-1), Ellen (VZV) and AD169 (CMV) were used as wild-type susceptible reference isolates. Clinical strains C119629 (HSV-1), C114093 (HSV-1), C80249 (HSV-1), L920062 (HSV-1), MS2 (HSV-2), C75134 (HSV-2), W-940012 (HSV-2), C72984 (HSV-2), D-900180 (HSV-2), M-890546 (HSV-2), P-920056 (HSV-2) and GB2000VZV (VZV) as well as laboratory strains Xbaf (CMV) and VQA3 (CMV) were used as drug (ACV/GCV/FOS)— resistant isolates. All clinical strains starting with the letter C originated from the Quebec City clinical virology laboratory.
(§4) This assay is based on the use of solutions of a tetrazolium salt (3-(4,5-dimethylthiazol-2-yl)-5-(3-carboxymethoxyphenyl)-2-(4-sulphophenyl)-2H-tetrazolium, inner salt; MTS) and an electron coupling reagent (phenazine methosulfate; PMS). The tetrazolium salt is reduced by living cells to yield a formazan product that can be assayed colorimetrically. Briefly, HFFs and Vero cells were seeded in 96-well plates. After 24 h, media was aspirated and 100 μl of compounds diluted in MEM at concentrations up to 100 μM were added to wells in quaduplicate. After incubation at 37° C. for 3 days, 10 μl of a solution of MTS and PMS were added to each well. The plates were incubated at 37° C. for 2 h. The absorbance of the supernatant was read at a wavelength of 492 nm to measure cell viability compared to no-drug control wells. The drug concentration was plotted against the optical density of each sample and cellular toxicity (CC50) was calculated using GraphPad Prism version 5.0 (GraphPad Inc., La Jolla, Calif., USA).

Vero cells = experiment: MTS cell proliferation (cytotoxicity) assay on Vero cells; conditions: for therapeutic index (CC50/IC50): CC50 Vero cells, IC50 of the HSV-1 reference strain (H25); for toxicity (CC50) compared with ACV, GCV and FOS: Vero cells, MTS assay
Method: as §3, §4

[3] = Microsomal stability in rat liver microsomes; type: in vitro ADME; conditions: Sprague-Dawley; for half-life at 2 μM: rat liver microsomes 1 mg/ml, 2 μM compound, 37° C., NADPH, read-out: Half-life (t1/2); for CLint scaled at 2 μM: rat liver microsomes
Method: Sprague-Dawley rat liver microsomes (concentration 1 mg/ml) were incubated at 37° C. with 2 μM of compounds 2 or 3 in PBS containing 5 mM MgCl2 and 1 mM NADPH. The antihypertensive drug reserpine was used as a reference compound. Aliquots of 50 μl were withdrawn at different time intervals and placed in 96-well plates containing 50 μL of acetonitrile on ice. Samples were then mixed and centrifuged at 3000 rpm and 10 μL were injected in a liquid chromatography system (Agilent 1100 Binary Pumps). The aliquots from liquid chromatography were subjected to mass spectrometry analysis on SCIEX API4000 with TurboIonSpray ionization source to determine the remaining percentage of the parent compound. Intrinsic clearance (Clint) estimates were determined using the rate of parent compound disappearance. The slope (-k) was determined by linear regression analysis from the linear portion of the natural logarithm of the test compound concentration versus time plot. The […] (t1/2) was calculated according to k=ln 2/t1/2. The microsomal Clint can be derived from the equation Clint=kVfu (mL/min/mg protein) where fu is the unbound fraction and V is the volume of the incubation expressed in milliliters per mg of microsomal protein. As fu is not known for the tested compounds, the calculation was performed with fu=1 (V). The Clint was also extrapolated to the whole liver protein.

[4] = fu=1, read-out: intrinsic clearance (Clint) extrapolated to whole rat liver

3-chloro-N-(2-{2-[(E)-2-(1-hydroxynaphthalen-2-yl)ethenyl]hydrazinyl}-2-oxoethyl)benzamide [Compound C3-2]
antiviral activity by PRA (VZV): not active
antiviral activity by PRA (HSV-2): not active
antiviral activity by PRA (HSV-1): not active
antiviral activity by PRA (CMV): not active

O=C(CNC(=O)c1cccc2ccccc12)N/N=C/c1ccccc1O [Compound 2, N-{2-[(2E)-2-(2-hydroxybenzylidene)hydrazinyl]-2-oxoethyl}naphthalene-1-carboxamide]
permeability class [1]: high (high (Papp>10))
Papp at 5 h [1]: 113 ± 11.7 nm/s
in vitro antiviral activity (concluding summary, words) (VZV): highly active
factor by which less active than ACV (IC50) (VZV; representative wild-type VZV strain, PRA): 2 to 3 fold
IC50 value increases compared to the representative wild-type strains (HSV-2; ACV- and/or FOS-resistant HSV-2 strains, Vero cells): 0.7 to 1.7 fold
in vitro antiviral activity (concluding summary, words) (HSV-2): highly active
factor by which less active than ACV (IC50) (HSV-2): 2 to 3 fold
toxicity (CC50) compared with ACV, GCV and FOS [2]: somewhat more toxic
therapeutic index (CC50/IC50) (Vero cells): 19.3
toxicity (CC50) compared with ACV, GCV and FOS (Vero cells): somewhat more toxic
IC50 value increases compared to the representative wild-type strains (HSV-1; ACV- and/or FOS-resistant HSV-1 strains, Vero cells): 0.7 to 1.7 fold
in vitro antiviral activity (concluding summary, words) (HSV-1): highly active
factor by which less active than ACV (IC50) (HSV-1): 2 to 3 fold
half-life at 2 μM [3]: 33 min
CLint scaled at 2 μM [3, 4]: 2.22 L/h/kg

C=CCc1cccc(/C=N/NC(=O)CNC(=O)c2cccc(Cl)c2)c1O [Compound 3, 3-chloro-N-(2-{(2E)-2-[2-hydroxy-3-(prop-2-en-1-yl)benzylidene]hydrazinyl}-2-oxoethyl)benzamide]
permeability class [1]: intermediate (intermediate (1<Papp<10))
Papp at 5 h [1]: 34 ± 4.5 nm/s
therapeutic index (CC50/IC50) ([2]; CC50 HFFs, IC50 of the CMV reference strain (AD169)): 6.6
toxicity (CC50) compared with ACV, GCV and FOS [2]: somewhat more toxic
toxicity (CC50) compared with ACV, GCV and FOS (Vero cells): somewhat more toxic
half-life at 2 μM [3]: 22 min
CLint scaled at 2 μM [3, 4]: 3.72 L/h/kg
in vitro antiviral activity (concluding summary, words) (CMV; CMV): highly active
factor by which less active than GCV (IC50) (CMV; CMV reference strain, PRA): 2 fold
IC50 value increases compared to the representative wild-type strain (CMV; GCV- and/or FOS-resistant CMV strains, HFF cells): 1 to 2 fold

COc1ccc(O)c(C=NNC(=O)CNC(=O)c2cccc3ccccc23)c1 [Compound 9, N-(2-(2-(2-hydroxy-5-methoxybenzylidene)hydrazino)-2-oxoethyl)-1-naphthamide]
factor by which less active than ACV (IC50) (HSV-2): 3 to 4 fold
factor by which less active than ACV (IC50) (HSV-1): 3 to 4 fold

O=C(CNC(=O)c1cccc2ccccc12)N/N=C/c1c(O)cccc1O [Compound C2.05, N-{2-[(2E)-2-(2,6-dihydroxybenzylidene)hydrazinyl]-2-oxoethyl}naphthalene-1-carboxamide]
antiviral activity by PRA (VZV): active against wild-type HSV-2 only
antiviral activity by PRA (HSV-2): active
antiviral activity by PRA (HSV-1): active against wild-type HSV-2 only
antiviral activity by PRA (CMV): not active

O=C(CNC(=O)c1cccc2ccccc12)N/N=C/c1ncccc1O [Compound C2.11, N-(2-{(2E)-2-[(3-hydroxypyridin-2-yl)methylidene)hydrazinyl}-2-oxoethyl)naphthalene-1-carboxamide]
antiviral activity by PRA (VZV): active
antiviral activity by PRA (HSV-2): active
antiviral activity by PRA (HSV-1): not against HSV-1
antiviral activity by PRA (CMV): not active

O=C(CNC(=O)c1cccc2ccccc12)N/N=C/c1ccc(F)cc1O [Compound C2.20, N-{2-[(2E)-2-(4-fluoro-2-hydroxybenzylidene)hydrazinyl]-2-oxoethyl}naphthalene-1-carboxamide]
antiviral activity by PRA (VZV): as active
in vitro antiviral activity (concluding summary, words) (VZV): retained excellent activity
in vitro antiviral activity (concluding summary, words) (HSV-2): retained excellent activity
antiviral activity by PRA (HSV-2): as active
therapeutic index (CC50/IC50) (Vero cells): 9.6
in vitro antiviral activity (concluding summary, words) (HSV-1): retained excellent activity
antiviral activity by PRA (HSV-1): as active
antiviral activity by PRA (CMV): not active

Cc1cccc(/C=C/NNC(=O)CNC(=O)c2cccc(Cl)c2)c1O [Compound C3-1, 3-chloro-N-(2-{2-[(E)-2-(2-hydroxy-3-methylphenyl)ethenyl]hydrazinyl}-2-oxoethyl)benzamide]
antiviral activity by PRA (VZV): not active
antiviral activity by PRA (HSV-2): not active
antiviral activity by PRA (HSV-1): not active
antiviral activity by PRA (CMV): not active

COC(=O)[C@H]1[C@H]2C[C@@H]3c4[nH]c5cc(OC)ccc5c4CCN3C[C@H]2C[C@@H](OC(=O)c2cc(OC)c(OC)c(OC)c2)[C@@H]1OC [reserpine, reference compound]
half-life at 2 μM [3]: 43 min
CLint scaled at 2 μM ([3]; reference compound, read-out: intrinsic clearance (Clint)): 1.68 L/h/kg
